Test: Inhibition of neuraminidase activity of human parainfluenza virus 1 C35 hemagglutinin-neuraminidase pre-incubated for 20 mins before MUN substrate by methylumbelliferone release based fluorescence assay

Row | SMILES | IC50
1 | CCC(C)C(=O)N[C@H]1[C@H]([C@H](O)[C@H](O)CO)OC(C(=O)O)=C[C@@H]1N=[N+]=[N-] (stereo partly drawn) | 1.58 µM
2 | [N-]=[N+]=N[C@H]1C=C(C(=O)O)O[C@@H]([C@H](O)[C@H](O)CO)[C@@H]1NC(=O)C1CC1 | 0.91 µM
3 | CC(=O)N[C@H]1[C@H]([C@H](O)[C@H](O)CO)OC(C(=O)O)=C[C@@H]1O | 63.8 µM
4 | C/C=C(\C)C(=O)N[C@H]1[C@H]([C@H](O)[C@H](O)CO)OC(C(=O)O)=C[C@@H]1N=[N+]=[N-] | 7.76 µM
5 | [N-]=[N+]=N[C@H]1C=C(C(=O)O)O[C@@H]([C@H](O)[C@H](O)CO)[C@@H]1NC(=O)C1CCC1 | 1.92 µM
6 | CC(O)C(=O)N[C@H]1[C@H]([C@H](O)[C@H](O)CO)OC(C(=O)O)=C[C@@H]1N=[N+]=[N-] (stereo partly drawn) | 68.1 µM
7 | CC(CO)C(=O)N[C@H]1[C@H]([C@H](O)[C@H](O)CO)OC(C(=O)O)=C[C@@H]1N=[N+]=[N-] (stereo partly drawn) | 9.49 µM
8 | CC(C)C(=O)N[C@H]1[C@H]([C@H](O)[C@H](O)CO)OC(C(=O)O)=C[C@@H]1N | 261 µM
9 | CC(C)C(=O)N[C@H]1[C@H]([C@H](O)[C@H](O)CO)OC(C(=O)O)=C[C@@H]1O | 3.82 µM
10 | CC(=O)N[C@H]1[C@H]([C@H](O)[C@H](O)CO)OC(C(=O)O)=C[C@@H]1N | > 1000 µM
11 | CC(C)C(=O)N[C@H]1[C@H]([C@H](O)[C@H](O)CO)OC(C(=O)O)=C[C@@H]1NC(=N)N | > 1000 µM
12 | CC(C)C(=O)N[C@H]1[C@H]([C@H](O)[C@H](O)CO)OC(C(=O)O)=C[C@@H]1N=[N+]=[N-] | 0.5 µM
13 | CC(=O)N[C@H]1[C@H]([C@H](O)[C@H](O)CO)OC(C(=O)O)=C[C@@H]1N=[N+]=[N-] | 3.92 µM
